Source: US20190298715A1, “IMMUNE EFFECTOR CELL THERAPIES WITH ENHANCED EFFICACY” (Novartis AG, priority 2016, published 2019)

Tests used:
full-length LSD1 = target: T1, full-length LSD1 (Homo sapiens, UniProt O60341); assay: FL-LSD1 LC-MS assay; format: biochemical; details: 0.4 nM FL-LSD1, 0.25 μM FAD, 0.5 μM H3K4me1 peptide, 60 min; read-out: LCMS IC50 (LSD1 IC50 as measured by LCMS)
T1 construct: the full-length LSD1 and 0.5 μM FAD in reaction buffer
Procedure: Representative compounds of the present disclosure were serially and separately diluted 3-fold in DMSO to obtain a total of twelve concentrations. […] A 5 μL solution of 1 μM of the peptide substrate H3K4me1 (histone H3[1-21]-biotin) in reaction buffer was added to each initiate reaction. […] The conversion ratio of H3K4me1 substrate to the H3K4me0 product was calculated by dividing the peak area of the H3K4me0 peptide by the total peak area of all those two peptides on the assumption that the ionization efficiency of those peptides is the same. The data were then fit to a dose response equation using the program Helios to get the IC50 values of the test compound.

human T cells = assay: T cell phenotype after anti-CD3/CD28 expansion with LSD1 shRNA (flow cytometry); format: cell-based; details: 10 days anti-CD3/CD28 expansion, transfected with DNA encoding shRNA
Procedure: Flow cytometry was performed on a four laser Fortessa (Becton-Dickinson).
Inhibition of LSD1 by shRNA promotes the expansion of TSCM cells T cells were isolated by negative selection and expanded with anti-CD3/CD28 beads at a 3:1 ratio for 10 days. On day 1, T cells were transduced with lentiviral expression vectors containing LSD1 shRNA targeting sequences that co-expressed the fluorescent protein mCherry. Following expansion, T cell phenotypes of mCherry+ T cells were assessed by flow cytometry.

Row | Molecule | IC50 (full-length LSD1) | percentage of CD4+ T cells having the TSCM (CD45RA+CD62L+CCR7+CD27+CD95+) phenotype (human T cells) | percentage of CD8+ T cells having the TSCM (CD45RA+CD62L+CCR7+CD27+CD95+) phenotype (human T cells)
1 | LSD1 2: shRNA to LSD1, encoded by SEQ ID NO: 127 (DNA CAGAAGGCCTAGACATTAAACCTCGAGGTTTAATGTCTAGGCCTTCTGTTTTTTGA; the letters are possibly those of the target site) | – | enriched in TSCM | ~50%
2 | LSD1 1A: shRNA to LSD1, encoded by SEQ ID NO: 125 (nucleic acid) DNA: CGGTTGCTAGAAGCTACATCTGTTAATATTCATAGCAGATGTAGCTTCTAGCAACCGTTTTTTGA | – | enriched in TSCM | ~50%
3 | LSD1 1B: shRNA to LSD1, encoded by SEQ ID NO: 126 (nucleic acid, the letters are possibly those of the target site) DNA: CGGTTGCTAGAAGTTACATTTGTTAATATTCATAGCAGATGTAGCTTCTAGCAACCGTTTTTTGA | – | up to 20% | ~50%

Continued, in another order:

Row | IC50 (full-length LSD1) | Molecule | percentage of CD4+ T cells having the TSCM (CD45RA+CD62L+CCR7+CD27+CD95+) phenotype (human T cells) | percentage of CD8+ T cells having the TSCM (CD45RA+CD62L+CCR7+CD27+CD95+) phenotype (human T cells)
4 | 12 nM | CS(=O)(=O)c1ccc(-c2cc(-c3cc(C#N)c(N4CCNCC4)[nH]3)ccc2Cl)cc1 [5-(6-chloro-4′-(methylsulfonyl)biphenyl-3-yl)-2-(piperazin-1-yl)-1H-pyrrole-3-carbonitrile] | – | –
5 | 5 nM | COc1ccc(-n2cc(-c3cccc(N)c3C)c3cc(C#N)c(C)cc32)cc1 [NVS Compound 2, 3-(3-amino-2-methylphenyl)-1-(4-methoxyphenyl)-6-methyl-1H-indole-5-carbonitrile] | – | –
6 | 9 nM | CN(C)C1CCN(S(=O)(=O)c2ccc(-n3ncc4c(-c5ccc(C6CCNCC6)cc5)cccc43)cc2)CC1 [N,N-dimethyl-1-((4-(4-(4-(piperidin-4-yl)phenyl)-1H-indazol-1-yl)phenyl)sulfonyl)piperidin-4-amine] | – | –
